From publication PMC9241302, “Identification of 2-(4-N,N-Dimethylaminophenyl)-5-methyl-1-phenethyl-1H-benzimidazole targeting HIV-1 CA capsid protein and inhibiting HIV-1 replication in cellulo” (BMC Pharmacology & Toxicology, 2022)
Like-named read-outs stand apart in the source and are kept apart here.

Experiments:
[1] = target: HIV-1 CA (Human immunodeficiency virus type 1 group M subtype B, UniProt P12493); assay: HIV-1 CA assembly inhibition assay (absorbance at 340 nm); assay type: biochemical; design: the capsid protein (CA) of the Gag polyprotein; made in house; host or cells: Escherichia coli BL21(DE3) pLysS
Procedure: The CA assembly assay was performed in a final volume of 70 µL in 384-well plates, with a final concentration of 5 mg/mL of purified recombinant HIV-1 CA in Phosphate/NaCl Buffer (NaH2PO4/Na2HPO4 50 mM, NaCl 100 mM, pH 7.4), as described for FIV CA [27, 31]. Absorbance was measured at 340 nm every 30 s in a multiplate reader VarioskanTM Flash Multimode Reader (Thermo Scientific, MA, US) at 37 °C for 30 min. The compounds were tested at a fixed initial dose of 25 or 50 µM (at 0.5% DMSO [v/v]) by adding 1 µL of the concentrated ligand to the well before starting the measurement. The controls were CA at 5 mg/mL in only 0.5% DMSO [v/v] and CA without DMSO. The criteria to select active compounds were the observation of at least 50% of assembly inhibition at these doses, based on the reduction of the OD value at 340 nm at the plateau value compared to the controls.

[2] = Cytotoxicity in human macrophages (PMA-stimulated THP-1 monocytes, MTT); assay type: cell-based; settings: PMA-stimulated THP-1 monocytes (human macrophages), 48hs
Procedure: (§1) TZM-bl cells, U87-CD4-CCR5, murine macrophages (J774.1), and THP-1 monocytes (ATCC®TIB-202™) were grown following ATCC recommendations. Cells were seeded in a 96-well plate (10^4 cells in 200 µL culture medium) and incubated at 37 °C in a 5% CO2 atmosphere for 48 h, to allow cell adhesion before drug testing. For stimulation (THP-1 monocytes), cells were incubated with 100 nM of phorbol 12-myristate 13-acetate (PMA) for 48 h. […] A vehicle for control (0.4% DMSO) and negative wells (cells in medium) was used in each test. […] After removing the medium, formazan crystals were dissolved in 180 µL of DMSO and 20µL of MTT buffer (0.1 M glycine, 0.1 M NaCl, 0.5 mM EDTA, pH 10.5), and the absorbance at 560 nm was measured. […] Tests were performed in triplicate, in two independent experiments.

[3] = Cytotoxicity in murine macrophages (MTT); assay type: cell-based; settings: mouse, J774.1 murine macrophages; 48 hs
Procedure: as §1

[4] = system: human red blood cells; assay: Red blood cell lysis assay; assay type: cell-based; settings: Erythrocyte, 24hs
Procedure: Human blood (blood discarded from the blood bank) collected in sodium citrate solution (3.8%) was centrifuged at 200 × g for 10 min at 4 °C. The plasma supernatant was removed and erythrocytes were suspended in ice-cold PBS. The cells were again centrifuged at 200 × g for 10 min at 4 °C. This procedure was repeated two more times to ensure the removal of any released hemoglobin. Once the supernatant was removed after the last wash, the cells were suspended in PBS to 2% w/v red blood cell solution. […] Ten replicates for each concentration were done and incubated for 24 h at 37 °C before analysis. Complete hemolysis was attained using neat water yielding the 100% control value (positive control). The release of hemoglobin into the supernatant was determined spectrophotometrically at 405 nm using a multiplate reader VarioskanTM Flash Multimode Reader (Thermo Scientific, MA, US). Results are expressed as the percentage of total hemoglobin released in the presence of the compounds. This percentage was calculated using the equation percentage hemolysis (%) = [(A1 − A0)/(Aw)] × 100, where A1 is the absorbance at 405 nm of the test sample at t = 24 h, A0 is the absorbance at 405 nm of the test sample at t = 0 h, and Aw is the absorbance at 405 nm of the positive control (water) at t = 24 h. […] The experiments were done in quintuplicate. AmpB was used as a positive control.

[5] = Cytotoxicity in mammalian cells (MTT, all cell types); assay type: cell-based; settings: tested at 25, 50, and 100 µM
Procedure: The cytotoxicity of the compounds was assayed in different types of cells (TZM-bl cells, U87-CD4-CCR5, murine macrophages (J774.1), and THP-1 monocytes) at 25, 50, and 100 µM (Fig. 2). […] Compound 314 has the most complete toxicology profile because was preclinically developed for Chagas disease infection, as an antiparasitic drug. […] It has lower oral toxicity than PF74. Was predicted as no mutagenic by the TEST software.
TZM-bl cells, U87-CD4-CCR5, murine macrophages (J774.1), and THP-1 monocytes (ATCC®TIB-202™) were grown following ATCC recommendations. Cells were seeded in a 96-well plate (10^4 cells in 200 µL culture medium) and incubated at 37 °C in a 5% CO2 atmosphere for 48 h, to allow cell adhesion before drug testing. For stimulation (THP-1 monocytes), cells were incubated with 100 nM of phorbol 12-myristate 13-acetate (PMA) for 48 h. PMA was then washed and cells were left for an additional 24 h, 48 h or11 days (only U87 cells) with growth media containing compound 696 at 10, 25, 50, and 100 µM. […] Cell viability was then assessed by measuring the mitochondria-dependent reduction of MTT (3-(4,5-dimethylthiazol-2-yl)-2,5-diphenyltetrazolium bromide) to formazan. […] After removing the medium, formazan crystals were dissolved in 180 µL of DMSO and 20µL of MTT buffer (0.1 M glycine, 0.1 M NaCl, 0.5 mM EDTA, pH 10.5), and the absorbance at 560 nm was measured. […]

Question: With `Cc1ccc2c(c1)nc(-c1ccc(N(C)C)cc1)n2CCc1ccccc1` [compound 696, 2-(4-N,N-dimethylaminophenyl)-5-methyl-1-phenethyl-1H-benzimidazole] as the compound, how does the “Effect in p24 multimerization in vitro” value [1] read?
Answer: inhibited

Question: And the “interference with the assembly of HIV-1 CA in vitro” value ([1]; compounds at 25 or 50 µM, CA 5 mg/mL, 30 min)?
Answer: interference with the assembly

Question: What about the “Effect in p24 multimerization in vitro” value ([1]; listed as C00002) of the same compound?
Answer: inhibition

Question: What about the EC50 at 48 h [2] of the same compound?
Answer: > 100 µM

Question: What about the EC50 at 48 h [3] of the same compound?
Answer: > 50 µM

Question: What about the EC50 [4] of the same compound?
Answer: > 100 µM

Question: What about the EC50 [5] of the same compound?
Answer: > 50 µM
